Laboratory results as given in patent US8410163B2, “Substituted 4-amino-5-benzoyl-2-(phenylamino)thiophene-3-carbonitriles and substituted 4-amino-5-benzoyl-2-(phenylamino)thiophene-3-carboxamides as tubulin polymerization inhibitors” (Telik, Inc., priority 2009, dated 2013).
Like-named read-outs stand apart in the source and are kept apart here.

Tests used:
[1] = test system: A549 (human lung adenocarcinoma); experiment: Cytotoxicity assay (CellTiter-Glo), A549; assay type: cell-based; settings: 72 h, A549 cells, three days culture, rounded to 1 significant figure
Experimental: (§1) The cell lines A549 (human lung adenocarcinoma), OVCAR-3 (human ovarian carcinoma), HL60 (human promyelocytic leukemia), DLD1 (human colon adenocarcinoma) and HCT116 (human colon carcinoma) were obtained from the American Type Culture Collection, Manassas, Va., U.S.A. All products were used in accordance with manufacturer's directions. The histone phosphorylation (p-H3) assay was conducted in duplicate and the cytotoxicity assays were conducted in triplicate, in each case with solvent control.
(§2) Log-phase cells were trypsinized, collected by centrifugation, and resuspended in a small volume of fresh medium, and the density of viable cells was determined following Trypan Blue staining. Cells were diluted in fresh media, the test compounds (concentrations between 0.1 μM and 200 μM, dissolved in DMSO, 50 μL) added immediately after dilution to achieve a final DMSO concentration of 0.5%, then the suspensions added at 150 μL/well to 96-well plates, and incubated overnight to allow attachment in the case of adherent cells. The cells were cultured for three days (about three doubling times). The cells were then collected by centrifugation, and 100 μL of the culture supernatant was replaced by the CellTiter-Glo reagent. After incubation for 15 minutes at room temperature, the plate was read with a luminometer. […] The table gives cytotoxicity IC50s in μM, rounded to 1 significant figure.

[2] = test system: OVCAR-3 (human ovarian carcinoma); experiment: Cytotoxicity assay (CellTiter-Glo), OVCAR-3; assay type: cell-based; settings: 72 h, OVCAR-3 cells, three days culture, rounded to 1 significant figure
Experimental: as §1, §2

[3] = test system: HL60 (human promyelocytic leukemia); experiment: Cytotoxicity assay (CellTiter-Glo), HL-60; assay type: cell-based; settings: 72 h, HL-60 cells, three days culture, rounded to 1 significant figure
Experimental: as §1, §2

[4] = test system: DLD1 (human colon adenocarcinoma); experiment: Cytotoxicity assay (CellTiter-Glo), DLD1; assay type: cell-based; settings: DLD-1, 72 h, DLD1 cells, three days culture, rounded to 1 significant figure
Experimental: as §1, §2

[5] = test system: HCT116 (human colon carcinoma); experiment: Cytotoxicity assay (CellTiter-Glo), HCT116; assay type: cell-based; settings: HCT-116, 72 h, HCT116 cells, three days culture, rounded to 1 significant figure
Experimental: as §1, §2

p-H3 in A549 cells = experiment: Histone phosphorylation (p-H3) assay; assay type: cell-based; settings: Homo sapiens, 4 hr incubation, dot-blot
Experimental: as §1
Log phase A549 cells were seeded in a 96-well plate and allowed to attach overnight. The test compounds were diluted in DMSO (8 concentrations with serial 3-fold dilutions) and added to the cells (0.5% DMSO final concentration), and the cells incubated for 4 hr. The cells were then washed three times with cold phosphate-buffered saline (PBS), and lysis buffer was added. After 30 min shaking at 4° C. and centrifugation, the supernatants were transferred to a nitrocellulose membrane by a “dot-blot” apparatus. After washing the wells, the membrane was processed for Western blot. Detection of p-H3 and β-actin was performed on the same membrane with primary rabbit anti-p-H3 and mouse anti-β-actin antibodies followed by secondary goat anti-rabbit IRDye800 and goat anti-mouse AlexaFluor 680 antibodies. The membranes were scanned on an Odyssey scanner.

tubulin = experiment: Inhibition of tubulin polymerization, cell-free fluorescence assay; assay type: biochemical
[6] = test system: HL60 (human promyelocytic leukemia) xenograft; experiment: HL60 xenograft assay, oral administration; assay type: in vivo; settings: Mus musculus, HL-60, po, nu/nu mice, read-out: inhibition of tumor growth compared to vehicle
Experimental: (§3) Male athymic nu/nu mice, 6-8 weeks old (about 20 g), were implanted subcutaneously in the right fore flank with about 1×10^7 cells of the HL60 (human promyelocytic leukemia) line that had been grown in antibiotic-free medium for at least two passages. About 6 days after tumor implantation, when the tumor weight was about 50-250 mg, the mice were assigned to treatment groups. Test compounds were suspended at 20 mg/mL in 0.55 wt. % aqueous carboxymethylcellulose. Groups of mice were treated with compounds 2A, 9A, and 12A at 200 mg/Kg by gavage once/day on days 1-5 and 8-10 from the start of treatment, with vehicle control. Tumor growth inhibition was measured on the last day of treatment.
The experiment was conducted generally as described in In vivo Example 1. Groups of mice were treated with compounds 5A, 6A, 7A, 8A, and 10A at 200 mg/Kg by gavage once/day on days 1-5 and 8-10 from the start of treatment, with vehicle control. Tumor growth inhibition was measured the day after the last day of treatment.

[7] = test system: HCT116 (human colon carcinoma) xenograft; experiment: HCT116 xenograft assay, oral administration; assay type: in vivo; settings: nu/nu mice, 200 mg/Kg by gavage once/day days 1-5 and 8-12, measured 2 days after the last day of treatment
Experimental: as §3, with “the HCT116” for “the HL60”, “(human colon carcinoma)” for “(human promyelocytic leukemia)”, “About 14-21” for “About 6”, “tumor transplantation,” for “tumor implantation,”, “and 8-12” for “and 8-10”, “measured 2 days after” for “measured on”

[8] = test system: tubulin polymerization in A549 cells; experiment: Inhibition of tubulin polymerization in A549 cells by immunomicroscopy and cell fractionation; assay type: cell-based, human

IC50 (p-H3 in A549 cells) [nM]	IC50 ([8]; read-out: IC50, inhibition of tubulin polymerization in A549 cells) [nM]	SMILES	IC50 [1] [nM]	IC50 [2] [nM]	IC50 [3] [nM]	IC50 [4] [nM]	IC50 [5] [nM]	inhibition of tubulin polymerization (cell-free) (tubulin)	inhibition in vivo at 200 mg/kg ([6]; 200 mg/Kg by gavage once/day days 1-5 and 8-10, measured on the last day of treatment (In vivo Example 1)) [%]	inhibition of tumor growth compared to vehicle [7] [%]	inhibition in vivo at 200 mg/kg ([6]; 200 mg/Kg by gavage once/day days 1-5 and 8-10, measured the day after the last day of treatment (In vivo Example 3)) [%]	activity in tubulin polymerization assay in A549 cells [8]
20		COc1ccc(Nc2sc(C(=O)c3ccc(Cl)cc3)c(N)c2C#N)cc1 [Compound 2A]	10	20	10	6	10	inhibition of tubulin polymerization	46	35		
	9	COc1ccc(Nc2sc(C(=O)c3ccc(OC)cc3OC)c(N)c2C#N)cc1 [Compound 7A, 4-amino-5-(2,4-dimethoxybenzoyl)-2-[(4-methoxyphenyl)amino]thiophene-3-carbonitrile]	30		20		10				45	
500		CCc1ccc(Nc2sc(C(=O)c3ccc(Cl)cc3)c(N)c2C#N)cc1 [Compound 15A, 4-amino-5-(4-chlorobenzoyl)-2-[(4-ethylphenyl)amino]thiophene-3-carbonitrile]	100		90							
		N#Cc1ccc(Nc2sc(C(=O)c3ccc(Cl)cc3)c(N)c2C#N)cc1 [Compound 40A]	2000									inactive
